{"source": "ChEMBL document CHEMBL1148819", "about": "“Structure, derivatization, and antitumor activity of new griseusins from Nocardiopsis sp” (J Med Chem, 2007)", "key": {"[1]": {"assay": "Cytotoxicity against MEXF514L cells after 4 days by monolayer assay", "assay_type": "functional, cell-based", "settings": "Homo sapiens, MEXF 514L, 96 h"}, "[2]": {"assay": "Cytotoxicity against MEXF520L cells after 4 days by monolayer assay", "assay_type": "functional, cell-based", "settings": "Homo sapiens, MEXF 520L, 96 h"}, "[3]": {"system": "RXF 393", "assay": "Cytotoxicity against RXF393NL cells after 4 days by monolayer assay", "assay_type": "functional, cell-based", "settings": "Homo sapiens, RXF 393NL, 96 h"}, "[4]": {"assay": "Cytotoxicity against RXF468L cells after 4 days by monolayer assay", "assay_type": "functional, cell-based", "settings": "Homo sapiens, 96 h"}, "[5]": {"assay": "Cytotoxicity against RXF944L cells after 4 days by monolayer assay", "assay_type": "functional, cell-based", "settings": "Homo sapiens, RXF 944L, 96 h"}, "[6]": {"assay": "Cytotoxicity against BXF1218L cells after 4 days by monolayer assay", "assay_type": "functional, cell-based", "settings": "Homo sapiens, BXF 1218L, 96 h"}, "[7]": {"assay": "Cytotoxicity against PRXF22Rv1 cells after 4 days by monolayer assay", "assay_type": "functional, cell-based", "settings": "Homo sapiens, 96 h"}, "[8]": {"assay": "Cytotoxicity against MAXF1162 cells after 2 to 7 days by clonogenic assay", "assay_type": "functional, cell-based", "settings": "Homo sapiens"}, "[9]": {"assay": "Cytotoxicity against MAXF583 cells after 2 to 7 days by clonogenic assay", "assay_type": "functional, cell-based", "settings": "Homo sapiens"}, "[10]": {"assay": "Cytotoxicity against MEXF535 cells after 2 to 7 days by clonogenic assay", "assay_type": "functional, cell-based", "settings": "Homo sapiens"}, "[11]": {"system": "MEXF989", "assay": "Cytotoxicity against MEXF989 cells after 2 to 7 days by clonogenic assay", "assay_type": "functional, cell-based", "settings": "Homo sapiens, MEXF 989"}, "[12]": {"system": "MDA-MB-231", "assay": "Cytotoxicity against MDA-MB-231 cells after 4 days by monolayer assay", "assay_type": "functional, cell-based", "settings": "Homo sapiens, MDA-MB-231, 96 h"}, "[13]": {"system": "MDA-MB-468", "assay": "Cytotoxicity against MDA-MB-468 cells after 4 days by monolayer assay", "assay_type": "functional, cell-based", "settings": "Homo sapiens, MDA-MB-468, 96 h"}, "[14]": {"system": "MCF7", "assay": "Cytotoxicity against MCF7 cells after 4 days by monolayer assay", "assay_type": "functional, cell-based", "settings": "Homo sapiens, MCF7, 96 h"}, "[15]": {"assay": "Cytotoxicity against MAXF401 cells after 4 days by monolayer assay", "assay_type": "functional, cell-based", "settings": "Homo sapiens, MAXF401, 96 h"}, "[16]": {"system": "MEXF276L", "assay": "Cytotoxicity against MEXF276L cells after 4 days by monolayer assay", "assay_type": "functional, cell-based", "settings": "Homo sapiens, 96 h"}, "[17]": {"assay": "Cytotoxicity against MEXF394NL cells after 4 days by monolayer assay", "assay_type": "functional, cell-based", "settings": "Homo sapiens, MEXF 394NL, 96 h"}, "[18]": {"assay": "Cytotoxicity against MEXF462NL cells after 4 days by monolayer assay", "assay_type": "functional, cell-based", "settings": "Homo sapiens, MEXF 462NL, 96 h"}, "[19]": {"system": "RXF 393", "assay": "Cytotoxicity against RXF393 cells after 2 to 7 days by clonogenic assay", "assay_type": "functional, cell-based", "settings": "Homo sapiens"}, "[20]": {"assay": "Cytotoxicity against RXF944LX cells after 2 to 7 days by clonogenic assay", "assay_type": "functional, cell-based", "settings": "Homo sapiens, RXF 944LX"}, "[21]": {"assay": "Cytotoxicity against CXF1103 cells after 2 to 7 days by clonogenic assay", "assay_type": "functional, cell-based", "settings": "Homo sapiens"}, "[22]": {"assay": "Cytotoxicity against CXF158 cells after 2 to 7 days by clonogenic assay", "assay_type": "functional, cell-based", "settings": "Homo sapiens"}, "[23]": {"assay": "Cytotoxicity against CXF264 cells after 2 to 7 days by clonogenic assay", "assay_type": "functional, cell-based", "settings": "Homo sapiens"}, "[24]": {"system": "PAXF546", "assay": "Cytotoxicity against PAXF546 cells after 2 to 7 days by clonogenic assay", "assay_type": "functional, cell-based", "settings": "Homo sapiens"}, "[25]": {"system": "PAXF736", "assay": "Cytotoxicity against PAXF736 cells after 2 to 7 days by clonogenic assay", "assay_type": "functional, cell-based", "settings": "Homo sapiens"}, "[26]": {"system": "CCRF-CEM", "assay": "Cytotoxicity against CCRF-CEM cells after 2 to 7 days by clonogenic assay", "assay_type": "functional, cell-based", "settings": "Homo sapiens"}, "[27]": {"assay": "Cytotoxicity against human umbilical cord hematopoietic stem cells after 12 days by clonogenic assay", "assay_type": "cell-based", "settings": "288 h"}, "[28]": {"assay": "Cytotoxicity against LXF-1121L cells after 4 days by monolayer assay", "assay_type": "functional, cell-based", "settings": "Homo sapiens, 96 h"}}}
{"compound": "C[C@@H]1CC(=O)[C@@H](O)[C@]2(O1)O[C@@H]1CC(=O)O[C@@H]1C1=C2C(=O)c2c(O)cccc2C1=O", "values": [{"measurement": "IC50", "setting": "[1]", "value": 87, "unit": "nM"}, {"measurement": "IC50", "setting": "[2]", "value": 87, "unit": "nM"}, {"measurement": "IC50", "setting": "[3]", "value": 95, "unit": "nM"}, {"measurement": "IC50", "setting": "[4]", "value": 95, "unit": "nM"}, {"measurement": "IC50", "setting": "[5]", "value": 95, "unit": "nM"}, {"measurement": "IC50", "setting": "[6]", "value": 140, "unit": "nM"}, {"measurement": "IC50", "setting": "[7]", "value": 177, "unit": "nM"}, {"measurement": "IC50", "setting": "[8]", "value": 455, "unit": "nM"}, {"measurement": "IC50", "setting": "[9]", "value": 195, "unit": "nM"}, {"measurement": "IC50", "setting": "[10]", "value": 137, "unit": "nM"}, {"measurement": "IC50", "setting": "[11]", "value": 295, "unit": "nM"}, {"measurement": "IC50", "setting": "[12]", "value": 150, "unit": "nM"}, {"measurement": "IC50", "setting": "[13]", "value": 150, "unit": "nM"}, {"measurement": "IC50", "setting": "[14]", "value": 150, "unit": "nM"}, {"measurement": "IC50", "setting": "[15]", "value": 150, "unit": "nM"}, {"measurement": "IC50", "setting": "[16]", "value": 87, "unit": "nM"}, {"measurement": "IC50", "setting": "[17]", "value": 87, "unit": "nM"}, {"measurement": "IC50", "setting": "[18]", "value": 87, "unit": "nM"}, {"measurement": "IC50", "setting": "[19]", "value": 375, "unit": "nM"}, {"measurement": "IC50", "setting": "[20]", "value": 290, "unit": "nM"}, {"measurement": "IC50", "setting": "[21]", "value": 257, "unit": "nM"}, {"measurement": "IC50", "setting": "[22]", "value": 257, "unit": "nM"}, {"measurement": "IC50", "setting": "[23]", "value": 257, "unit": "nM"}, {"measurement": "IC50", "setting": "[24]", "value": 420, "unit": "nM"}, {"measurement": "IC50", "setting": "[25]", "value": 614, "unit": "nM"}, {"measurement": "IC50", "setting": "[26]", "value": 132, "unit": "nM"}, {"measurement": "IC50", "setting": "[27]", "value": 1190, "unit": "nM"}, {"measurement": "IC50", "setting": "[28]", "value": 207, "unit": "nM"}]}
